Measurements as given in patent US7928119B2, “Use of EP4 receptor ligands in the treatment of IL-6 involved diseases” (Pfizer Inc., priority 2002, dated 2011).
pIC50: −log10 of the molar value. Values joined by “and” are separate entries in the source; they are usually repeats but may differ in a detail not shown here. Equal entries are not always repeated.

Legend:
human whole blood (HWB) [1] = test: PGE2-induced IL-6 production assay using human whole blood (HWB); format: cell-based; settings: 100 μM, 24 hrs incubation
Procedure: Peripheral human whole blood (HWB) was collected from healthy volunteers into the sample tubes (nine volumes into one volume of 3.8% trisodium citrate, Becton Dickinson), and chilled at 4° C. until the experiment. HWB (50 μl) was put into the assay plate and mixed for 10 sec with plate mixer (intensity level at 4, TAITAC, Micromixer). The samples were placed for 3 min at room temperature, then 45 μl of AIM medium was added and mixed for 10 sec with plate mixer (intensity level at 4). The samples were placed for 3 min at room temperature. The mixture (100 μl) of 10-10000 nM PGE2 and 100 μM argatroban were added to the samples, and mixed for 10 seconds with plate mixer (intensity level at 4). The samples were incubated in 5% CO2 at 37° C. for 24 hrs. Then, the samples were stirred and centrifuged at 200 g for 10 minutes. The supernatants were collected, and the IL-6 concentration was measured by ELISA-Kit (Cyto screen).
In this experiment, we have established PGE2-induced IL-6 production assay using human whole blood (HWB). To prevent fibrin synthesis, argatroban, a thrombin inhibitor, was added to the culture samples. […] Diluted human whole blood samples were stimulated with 10-10,000 nM of PGE2 and incubated at 37° C. for 24 hrs. The IL-6 concentration in the supernatant was determined by ELISA. […]

fibrin formation = test: Fibrin formation in HWB culture samples during 24 hrs incubation; parameters: species or system human; settings: 100 μM
Procedure: In this experiment, we have established PGE2-induced IL-6 production assay using human whole blood (HWB). To prevent fibrin synthesis, argatroban, a thrombin inhibitor, was added to the culture samples. […] Diluted human whole blood samples were stimulated with 10-10,000 nM of PGE2 and incubated at 37° C. for 24 hrs. The IL-6 concentration in the supernatant was determined by ELISA. The results represented the mean±s.d. from one representative experiment performed in triplicate.

human PBMC = test: PGE2 stimulation of IL-6 secretion in ConA-treated human PBMC and its inhibition by EP4 antagonists (ELISA); format: cell-based; settings: for pIC50: Homo sapiens, PBMC stimulated with 5 μg/ml ConA and 100 nM PGE2 for 24 hr, read-out: IC50 of inhibition of IL-6 production
Procedure: PBMC were stimulated with 5 μg/ml of Con A alone or with 10 nM to 1000 nM PGE2 at 37° C. for 24 hr. The secreted IL-6 in culture medium was measured by ELISA. Data are expressed as mean±s.d. (FIG. 1)
The PGE2 concentration-dependence of stimulation of IL-6 secretion by human PBMC without and with ConA-stimulation, and the inhibitory effect of Compound A. PBMC were stimulated with 5 μg/ml of Concanavalin A alone or with 10 nM to 1000 nM PGE2 at 37° C. in 5% CO2 for 24 hr. To see the effect of Compound A, 50 μM of Compound A was added simultaneously with ConA and PGE2, and incubated for 24 hr. Data in parenthesis are expressed % control of mitocondorial dehydrogenase activity. (FIG. 2)
Compound A and Compound B inhibited the IL-6 secretion in ConA-treated PBMC. (FIG. 3.) PBMC were incubated with 5 μg/ml of Con A, 100 nM PGE2 and various doses of EP4 antagonists at 37° C. for 24 hr. The secreted IL-6 in culture medium was measured by ELISA. Data are expressed as mean±s.d.

[2] = tested on: ConA and PGE2 co-stimulated human whole blood; test: IL-6 production in ConA and PGE2 co-stimulated human whole blood; format: cell-based
Procedure: Compound B (50 μl), ConA and PGE2 (50 μl, 1:1) were diluted with the AIM medium (Gibco) in the appropriate concentrations (conc.) and were placed onto 96-well culture plates (assay plates). Peripheral blood was collected from healthy volunteers (nine volumes into one volume of 3.8% trisodium citrate, Becton Dickinson). Human whole-blood samples were diluted with the same volume of AIM medium, and 100 μl of diluted-blood samples were place onto the assay plates. The final DMSO conc. of assay mixtures was 0.25%. The assay mixtures were incubated in 5% CO2 at 37° C. for 24 hrs. Then, the assay mixtures were stirred and centrifuged at 200 g for 10 minutes. The supernatants were collected, and the IL-6 concentration was measured by ELISA-Kit (Cyto screen).
PGE2 enhanced IL-6 production dose dependently from 10 to 1000 nM (FIG. 7). When blood samples were stimulated with 10, 100 and 1000 nM of PGE2, the IL-6 concentrations in the assay mixtures were 1.8˜10.8 ng/ml, 4˜20 ng/ml and 5.8˜23 ng/ml, respectively. The concentrations of PGE2 (10-1000 nM) gave sufficient IL-6 production to determine the IC50s of the EP4 antagonists. […] Diluted human whole-blood samples were stimulated with 5 μg/ml of ConA and three different concentrations of PGE2 (10-1000 nM). The IL-6 concentration in the supernatant was determined after 24 hrs of incubation at 37° C. Diluted human whole blood was co-stimulated with 5 μg/ml of ConA and 100 nM of PGE2 and incubated at 37° C. for 24 hrs. The IL-6 concentration in the supernatant was determined by ELISA.

human whole blood cells = test: IL-6 production in human whole blood cells; format: cell-based; settings: application of only PGE2 to human whole blood cells
Description: One embodiment of this invention is a more specific therapeutic targeting system to control IL-6 production. In addition, this system is a useful method for the detection of molecular target of atherosclerosis and IL-6 related disorders.

[3] = tested on: human leukemic T cells of the HSB.2 cultured line; settings: HSB.2 cells coexpressing EP2, EP3 and EP4; cited from earlier work
human whole blood (HWB) [4] = test: Effects of EP agonists on the production of IL-6 in HWB; format: cell-based; settings: agonist 1-10 μM (up to 10 μM), 24 hrs
Procedure: Peripheral human whole blood (HWB) was collected from healthy volunteers into the sample tubes (nine volumes into one volume of 3.8% trisodium citrate, Becton Dickinson), and chilled at 4° C. until the experiment. HWB (50 μl) was put into the assay plate and mixed for 10 sec with plate mixer (intensity level at 4, TAITAC, Micromixer). The samples were placed for 3 min at room temperature, then 45 μl of AIM medium was added and mixed for 10 sec with plate mixer (intensity level at 4). The samples were placed for 3 min at room temperature. The mixture (100 μl) of 10-10000 nM each EP agonist and 100 μM argatroban were added to the samples, and mixed for 10 sec with plate mixer (intensity level at 4). The samples were incubated in 5% CO2 at 37° C. for 24 hrs. Then, the samples were stirred and centrifuged at 200 g for 10 minutes. The supernatants were collected, and the IL-6 concentration was measured by ELISA-Kit (Cyto screen).
The application of 1-10 μM Butaprost, an EP2 agonist, enhanced IL-6 production (FIG. 5). […] Effects of EP2 (butaprost), EP4 (11-deoxy-PGE1) and EP1/EP3 (sulprostone) agonists on the production of IL-6 in HWB was measured respectively. Each agonist was added to the HWB, and incubated in 5% CO2 at 37° C. for 24 hrs. The results represented the mean±s.d. of the results in triplicate. […]

PGE2-stimulated HWB = test: Effects of EP4 antagonist on the production of IL-6 in PGE2-stimulated HWB; format: cell-based, human; settings: Compound B 320-40,000 nM, 24 hrs
Procedure: Peripheral human whole blood (HWB) was collected from healthy volunteers into the sampling tubes (nine volumes into one volume of 3.8% trisodium citrate, Becton Dickinson), and chilled at 4° C. until the experiment.
Compound B (5 μl) or vehicle (AIM medium containing 0.2% DMSO) was added into 96-well culture plates. HWB (50 μl) was put into the assay plate and mixed for 10 sec with plate mixer (intensity level at 4, TAITAC, Micromixer). The samples were placed for 3 min at room temperature, and then 45 μl of AIM medium was added and mixed for 10 sec with plate mixer (intensity level at 4). The samples were placed for 3 min at room temperature. The mixture (100 μl) of 100 nM PGE2 and 100 μM argatroban was added to the samples, and mixed for 10 sec with plate mixer (intensity level at 4). The samples were incubated in 5% CO2 at 37° C. for 24 hrs. Then, the samples were stirred and centrifuged at 200 g for 10 minutes. The supernatants were collected, and the IL-6 concentration was measured by ELISA-Kit (Cyto screen).
Compound B inhibited the PGE2-stimulated IL-6 production in a dose dependent manner (FIG. 6). Diluted human whole blood samples containing Compound B were stimulated with 10-10,000 nM of PGE2 and incubated at 37° C. for 24 hrs. The IL-6 concentration in the supernatant was determined by ELISA. […]

Molecule: CC1CNc2c(cccc2S(=O)(=O)N[C@@H](CCCNC(=N)N)C(=O)N2CC[C@@H](C)C[C@@H]2C(=O)O)C1 (some centres unmarked) [argatroban]
- amount of IL-6 production (human whole blood (HWB) [1]): did not affect
- fibrin formation in the blood samples (fibrin formation): inhibited

Molecule: CCCCC[C@H](O)/C=C/[C@H]1[C@H](O)CC(=O)[C@@H]1C/C=C\CCCC(=O)O [PGE2, Prostaglandin E2]
- secretion of IL-6 (human PBMC; ConA unstimulated PBMC, 10-1000 nM PGE2): did not affect
- IL-6 secretion further enhanced, compared with ConA stimulation without PGE2 (human PBMC; PBMC, 5 μg/ml ConA, 24 hr, […] PGE2 (so in the source)): 3.5 fold and 5.7 fold and 10.1 fold
- IL-6 production ([2]; ConA-stimulated HWB, PGE2 10 to 1000 nM): enhanced
- IL-6 production (human whole blood cells): enhanced IL-6 production to a great extent
- IL-6 production [3]: enhanced

Molecule: CCCCC[C@H](O)/C=C/[C@H]1CCC(=O)[C@@H]1CCCCCCC(=O)O [11-deoxy-PGE1]
- IL-6 production (human whole blood (HWB) [4]): enhanced

Molecule: CCc1nc2cc(C(C)=O)ccc2n1-c1ccc(CCNC(=O)NS(=O)(=O)c2ccc(C)cc2)cc1 [Compound C, N-[({2-[4-(5-acetyl-2-ethyl-1H-benzimidazol-1-yl)phenyl]ethyl}amino)carbonyl]-4-methylbenzenesulfonamide]
- mode of inhibition of IL-6 production ([2]; ConA and PGE2 co-stimulated HWB): competitively with PGE2
- inhibition of IL-6 production ([2]; ConA and PGE2 co-stimulated HWB, Compound C 16-50,000 nM): dose-dependent inhibition

Molecule: CCc1nc2c(C)cc(C)nc2n1-c1ccc(CCNC(=O)NS(=O)(=O)c2ccc(C)cc2)cc1 [Compound A, N-[({2-[4-(2-ethyl-5,7-dimethyl-3H-imidazo[4,5-b]pyridin-3-yl)phenyl]ethyl}amino)carbonyl]-4-methylbenzenesulfonamide]
- IL-6 production enhanced by PGE2 (human PBMC; ConA-treated PBMC, 50 μM compound, PGE2 10-1000 nM, 24 hr): significantly inhibited
- pIC50 (human PBMC): 7.89

Molecule: CCCC1([C@H](O)C/C=C/[C@H]2[C@H](O)CC(=O)[C@@H]2CCCCCCC(=O)OC)CCC1 [Butaprost]
- IL-6 production (human whole blood (HWB) [4]): enhanced

Molecule: O=C(O)c1cccc(C[C@@H]2CCCC=C2c2nc(-c3ccccc3)c(-c3ccccc3)o2)c1 [Compound B, 3-{[(1S)-2-(4,5-diphenyl-1,3-oxazol-2-yl)-2-cyclohexen-1-yl]methyl}benzoic acid]
- pIC50 (human PBMC): 7.49
- PGE2-stimulated IL-6 production (PGE2-stimulated HWB): inhibited

Molecule: Concanavalin A [ConA]
- secretion of IL-6 (human PBMC; PBMC, 5 μg/ml ConA, 24 hr, without PGE2): enhanced

Molecule: CCCC(=O)Nc1ncnc2c1ncn2[C@@H]1O[C@@H]2COP(=O)(O)O[C@H]2[C@H]1OC(=O)CCC [dibutyryl-cAMP]
- IL-6 production [3]: mimicked
